For assay [1], the system named is PKA activity in HMEC-1 cells. Briefly: PKA activity assay in endothelial cells. The format is cell-based, human. The conditions noted are these: IP-10dp 10 μM. As for the experimental part:
To further investigate the cAMP activation of PKA, a PKA assay experiment was conducted. As above, HMEC-1 cells were grown in complete growth media then further incubated in 0.5% dialyzed FBS MCDB 131 media for 24 hours. The cells were then stimulated with forskolin ([…]), and/or combinations of VEGF (100 ng/ml), IP-10 (200 ng/ml), and/or IP-10dp (10 μM) for 15, 30 and 60 minutes. The cells were lysed with an ice-cold hypotonic solution (50 mM Tris pH 7.4, 1 mM EDTA, 10 mg/ml aprotinin and 1 mM PMSF). The cells were incubated on ice for 30 minutes then centrifuged to remove the cell membranes. PKA activity was measured using a commercially available cAMP dependent protein kinase kit (Non-Radioactive Detection kit, from Promega Corp., of Madison, Wis.) according to the manufacturer's protocol. Absorbance was read at 570 nm with the solubilization buffer serving as a blank.

For assay [2], the system named is m-calpain in HMEC-1 cells. Briefly: Calpain activity by Boc-LM-CMAC cleavage. The class given is cell-based, human. Particulars: IP-10dp 10 μM, VEGF 75 ng/ml, BAPTA/AM pre-incubation. From the text:
Prior research has also shown that in endothelial cells, the CXCR3-activation of PKA inhibits motility secondary to inhibitory phosphorylation of m-calpain (also known as […]). VEGF induces calpain activity in endothelial cells, and […] (also known as […]) is activated, at least in part, by ERK phosphorylation on serine 50 and in other cells μ-calpain is activated secondary to a calcium flux. In this experiment, the IP-10dp affect on m-calpain is studied by using the membrane permeable synthetic calpain substrate Boc-LM-CMAC. Since the pre-fluorescent substrate Boc-LM-CMAC can be cleaved by both m- and μ-calpain, this experiment used BAPTA/AM, a membrane permeable calcium chelator, to distinguish between m- and μ-calpain activation in cells as this blocks activation of μ-calpain but not m-calpain.
In order to establish whether the IP-10dp inhibition of motility involves this above-described blockade of calpain activation, 8 well chamber slides were coated with 0.1% gelatin for 24 hours at 4° C. The gelatin was removed and HMEC-1 cells were plated at 12,000 cells/well then incubated in 10% FBS-EBM-EC media for 24 hrs. The media was removed and the cells were further incubated for 12 hrs with 0.5% dialyzed FBS-EBM media. All cell cultures were then incubated with either BAPTA AM ([…]), or Calpain inhibitor I (CI-1, […]) at 37° C. for 30 minutes. […]

On to “PESKAIKNLLKAVSKEMSKRSP (IP-10dp; listed as Homo sapiens) [synthetic fragment of IP-10 comprising residues 78-98, the C-terminal α-helical domain]”, for which, in assay [1], the “fold increase in PKA assay” value is 2-3 fold. Moreover, the “PKA activity in comparison to VEGF and untreated cells” value in assay [1] (15, 30 and 60 minutes) is on record as “significant increase in PKA activity”. For the same sequence, the “VEGF mediated m-calpain activity” value in assay [2] was “inhibits VEGF mediated m-calpain activity”.

For the origin of these results see patent US8734775B2, “Chemokine derived peptides that bind with chemokine receptor CXCR3 and uses for chronic wound and angiogenesis inhibition treatments” (University of Pittsburgh, priority 2011, dated 2014).
